Data on 1 compound can be found in ChEMBL document CHEMBL3526141, “Characterization of human liver enzymes involved in the biotransformation of boceprevir, a hepatitis C virus protease inhibitor” (Drug Metab Dispos, 2011).

A short description of data set [1]: Drug metabolism in human liver mitochondria treated with 20 uM assessed as compound formation in presence of NADPH generating system by LC-MS/MS/FSA method. Type of data set: ADME.
Data set [2] concerns Liver cytosol. The experiment in a line: Drug metabolism in human liver cytosol treated with 20 uM [14C]SCH 534129 assessed as 100 uM diazepam-mediated inhibition of metabolite formation LC-MS/MS/FSA method. Set-up: interact cpd dose 100 uM. The data set is classed as ADME, tissue-based.
For data set [3], the system named is Liver cytosol. The experiment in a line: Drug metabolism in human liver cytosol treated with 20 uM [14C]SCH 534129 assessed as 1 mM ibuprofen-mediated inhibition of metabolite formation LC-MS/MS/FSA method. Set-up: interact cpd dose 1 mM. Type of data set: ADME, tissue-based.
Data set [4] is described as follows: Retention time of the compound by LC-MS/MS method. Type of data set: physicochemical.
Data set [5] deals with Plasma. Put plainly: Drug metabolism in human plasma treated with [14C]boceprevir assessed as ratio of drug level by LC-MS/MS method relative to boceprevir. Type of data set: ADME, cell-free.
Data set [6] in a line: Drug metabolism in human liver S9 fraction treated with 20 uM assessed as compound formation in presence of NADPH generating system by LC-MS/MS/FSA method. Type of data set: ADME, subcellular.
Data set [7] has as its system Liver cytosol. Put plainly: Drug metabolism in human liver cytosol treated with 20 uM assessed as compound formation in presence of NADPH generating system by LC-MS/MS/FSA method. The data set is classed as ADME.

For `CC(C)(C)NC(=O)N[C@H](C(=O)N1C[C@H]2[C@@H]([C@H]1C(=O)N[C@H](CC1CCC1)[C@@H](O)C(N)=O)C2(C)C)C(C)(C)C`, the Compound recovery is 32% in data set [1], “>= 50%” in data set [5], 32% in data set [6] and 32% in data set [7]. The “inhibition (INH)” value in data set [2] is given as 78%; in data set [3] it was 63%. In data set [4], the Retention_time is on record as 43.1 min.
